Measured values reported in ChEMBL document CHEMBL1201862, “PubChem BioAssay data set” (2004).
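A five-concentration, 48-hour dose response in 96-well plates underlies each endpoint, interpolated linearly between surrounding concentrations. GI50 marks 50% less growth.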 The source made the active and inactive calls. Rule as the data show it: active = GI50 up to about 1.1 µM and inactive = higher.

Columns and labels:
Assay in all cases: NCI tumour cell line growth inhibition, 48 h
786-0 = tested on: 786-0
A498 = tested on: A498
A549 = tested on: A549
ACHN = tested on: ACHN
BT-549 = tested on: BT-549
CAKI-1 = tested on: CAKI-1
CCRF-CEM = tested on: CCRF-CEM
COLO 205 = tested on: COLO 205
DU-145 = tested on: DU-145
EKVX = tested on: EKVX
HCC 2998 = tested on: HCC 2998
HCT-116 = tested on: HCT-116
HCT-15 = tested on: HCT-15
HOP-62 = tested on: HOP-62
HOP-92 = tested on: HOP-92
HT-29 = tested on: HT-29
IGROV-1 = tested on: IGROV-1
K562 = tested on: K562
KM12 = tested on: KM12
LOX IMVI = tested on: LOX IMVI
M14 = tested on: M14
MCF7 = tested on: MCF7
MDA-MB-231 = tested on: MDA-MB-231
MDA-MB-435 = tested on: MDA-MB-435
MDA-N = tested on: MDA-N
MOLT-4 = tested on: MOLT-4
Malme-3M = tested on: Malme-3M
NCI-H226 = tested on: NCI-H226
NCI-H23 = tested on: NCI-H23
NCI-H460 = tested on: NCI-H460
NCI-H522 = tested on: NCI-H522
NCI/ADR-RES = tested on: NCI/ADR-RES
OVCAR-3 = tested on: OVCAR-3
OVCAR-4 = tested on: OVCAR-4
OVCAR-5 = tested on: OVCAR-5
OVCAR-8 = tested on: OVCAR-8
PC-3 = tested on: PC-3
RPMI-8226 = tested on: RPMI-8226
RXF 393 = tested on: RXF 393
SF-268 = tested on: SF-268
SF-295 = tested on: SF-295
SF-539 = tested on: SF-539
SK-MEL-28 = tested on: SK-MEL-28
SK-MEL-2 = tested on: SK-MEL-2
SK-MEL-5 = tested on: SK-MEL-5
SK-OV-3 = tested on: SK-OV-3
SN12C = tested on: SN12C
SNB-19 = tested on: SNB-19
SNB-75 = tested on: SNB-75
SR = tested on: SR
SW-620 = tested on: SW-620
T47D = tested on: T47D
TK-10 = tested on: TK-10
U-251 = tested on: U-251
UACC-257 = tested on: UACC-257
UACC-62 = tested on: UACC-62
UO-31 = tested on: UO-31
HL-60 = tested on: HL-60
Hs-578T = tested on: Hs-578T

CC(C)Sc1nc(C#N)cc2c1CCCC2
GI50 (786-0): 54 µM (inactive) | GI50 (A498): 37.1 µM (inactive) | GI50 (A549): 37.1 µM (inactive) | GI50 (ACHN): 40.6 µM (inactive) | GI50 (BT-549): 99.1 µM (inactive) | GI50 (CAKI-1): > 100 µM (inactive) | GI50 (CCRF-CEM): 24.8 µM (inactive) | GI50 (COLO 205): 20.1 µM (inactive) | GI50 (DU-145): > 100 µM (inactive) | GI50 (EKVX): 49.4 µM (inactive) | GI50 (HCC 2998): 74.8 µM (inactive) | GI50 (HCT-116): 44.7 µM (inactive) | GI50 (HCT-15): 37.6 µM | GI50 (HOP-62): 85.7 µM (inactive) | GI50 (HOP-92): 33.5 µM (inactive) | GI50 (HT-29): > 100 µM (inactive) | GI50 (IGROV-1): 96.2 µM (inactive) | GI50 (K562): 48.9 µM (inactive) | GI50 (KM12): 28.6 µM (inactive) | GI50 (LOX IMVI): 25.4 µM (inactive) | GI50 (M14): 48.6 µM (inactive) | GI50 (MCF7): 39.4 µM (inactive) | GI50 (MDA-MB-231): 57.1 µM (inactive) | GI50 (MDA-MB-435): 47 µM (inactive) | GI50 (MDA-N): 37.7 µM (inactive) | GI50 (MOLT-4): 19.5 µM (inactive) | GI50 (Malme-3M): 36.1 µM (inactive) | GI50 (NCI-H226): 40.6 µM (inactive) | GI50 (NCI-H23): 58.9 µM (inactive) | GI50 (NCI-H460): 48.9 µM (inactive) | GI50 (NCI-H522): 21.1 µM (inactive) | GI50 (NCI/ADR-RES): 39.2 µM (inactive) | GI50 (OVCAR-3): 30.3 µM (inactive) | GI50 (OVCAR-4): 53.1 µM (inactive) | GI50 (OVCAR-5): > 100 µM (inactive) | GI50 (OVCAR-8): 63.5 µM (inactive) | GI50 (PC-3): 38.2 µM (inactive) | GI50 (RPMI-8226): 26.4 µM (inactive) | GI50 (RXF 393): 27.7 µM (inactive) | GI50 (SF-268): 50.7 µM (inactive) | GI50 (SF-295): 40.9 µM (inactive) | GI50 (SF-539): 42.5 µM (inactive) | GI50 (SK-MEL-28): 29.7 µM (inactive) | GI50 (SK-MEL-2): 23.2 µM (inactive) | GI50 (SK-MEL-5): 15.8 µM (inactive) | GI50 (SK-OV-3): 72.9 µM (inactive) | GI50 (SN12C): 51.3 µM (inactive) | GI50 (SNB-19): > 100 µM (inactive) | GI50 (SNB-75): > 100 µM (inactive) | GI50 (SR): 20.7 µM (inactive) | GI50 (SW-620): 37.8 µM (inactive) | GI50 (T47D): 56.9 µM (inactive) | GI50 (TK-10): > 100 µM (inactive) | GI50 (U-251): 46.5 µM (inactive) | GI50 (UACC-257): 39.9 µM (inactive) | GI50 (UACC-62): 91.8 µM (inactive) | GI50 (UO-31): 47.6 µM (inactive)

CC(=O)OCCC1c2ccccc2-n2nc(-c3ccccc3)c(O)c21 (stereo not drawn)
GI50 (786-0): 18.6 µM (inactive) | GI50 (A498): 16.4 µM (inactive) | GI50 (A549): 17.7 µM (inactive) | GI50 (ACHN): 19.1 µM (inactive) | GI50 (BT-549): 17.1 µM (inactive) | GI50 (CAKI-1): 18.7 µM (inactive) | GI50 (CCRF-CEM): 11.6 µM (inactive) | GI50 (COLO 205): 20.1 µM (inactive) | GI50 (DU-145): 17.7 µM (inactive) | GI50 (EKVX): 15.9 µM (inactive) | GI50 (HCC 2998): 24.8 µM (inactive) | GI50 (HCT-116): 16.5 µM (inactive) | GI50 (HCT-15): 16.8 µM | GI50 (HL-60): 11.1 µM (inactive) | GI50 (HOP-62): 15.2 µM (inactive) | GI50 (HOP-92): 11.9 µM (inactive) | GI50 (HT-29): 21.2 µM (inactive) | GI50 (Hs-578T): 19.5 µM (inactive) | GI50 (IGROV-1): > 10 µM (inactive) | GI50 (K562): 10.8 µM (inactive) | GI50 (KM12): 16.6 µM (inactive) | GI50 (LOX IMVI): 13.7 µM (inactive) | GI50 (M14): 15.3 µM (inactive) | GI50 (MCF7): 7.11 µM (inactive) | GI50 (MDA-MB-231): 19.3 µM (inactive) | GI50 (MDA-MB-435): 16.9 µM (inactive) | GI50 (MDA-N): 17.5 µM (inactive) | GI50 (MOLT-4): 9.66 µM (inactive) | GI50 (Malme-3M): > 10 µM (inactive) | GI50 (NCI-H226): 26 µM (inactive) | GI50 (NCI-H23): 16.6 µM (inactive) | GI50 (NCI-H460): 14.5 µM (inactive) | GI50 (NCI-H522): 16.6 µM (inactive) | GI50 (NCI/ADR-RES): 14.8 µM (inactive) | GI50 (OVCAR-3): 21.3 µM (inactive) | GI50 (OVCAR-4): 14.3 µM (inactive) | GI50 (OVCAR-5): 19.3 µM (inactive) | GI50 (OVCAR-8): 15.7 µM (inactive) | GI50 (PC-3): 17.3 µM (inactive) | GI50 (RPMI-8226): 8.07 µM (inactive) | GI50 (RXF 393): 12.3 µM (inactive) | GI50 (SF-268): 34.7 µM (inactive) | GI50 (SF-295): 20 µM (inactive) | GI50 (SF-539): 21.6 µM (inactive) | GI50 (SK-MEL-28): 16.2 µM (inactive) | GI50 (SK-MEL-2): 27.1 µM (inactive) | GI50 (SK-MEL-5): 17 µM (inactive) | GI50 (SN12C): 14.8 µM (inactive) | GI50 (SNB-19): 14.6 µM (inactive) | GI50 (SNB-75): 20.8 µM (inactive) | GI50 (SR): 11.4 µM (inactive) | GI50 (SW-620): 15.8 µM (inactive) | GI50 (TK-10): 22.1 µM (inactive) | GI50 (U-251): 13.3 µM (inactive) | GI50 (UACC-257): 16.8 µM (inactive) | GI50 (UO-31): 16.7 µM (inactive)
